Results: patent publication US20240425517A1, “NOVEL COMPOUND FOR DEGRADATION OF TARGET PROTEIN OR POLYPEPTIDE BY POLYUBIQUITINATION” (PRAZER THERAPEUTICS INC., priority 2021, published 2024)

What follows are compounds tested against T1, BRD4 proteins (Homo sapiens, UniProt O60885) (assay: Degradation of BRD4 protein in MM.1S cell lines (Western blot densitometry)). Conditions: MM.1S cells, 10 μM, 24 hours.
T1 construct: endogenous in cells; host or cells: MM.1S
Assay type: cell-based
Description: To confirm that the compounds (BRD4 degraders) of Preparation Examples I′ to IV′ reduce the amount of BRD4 proteins, experiments were performed using MM.1S cell lines, which are B cells derived from the blood of multiple myeloma patients.
Specifically, the MM.1S cells were cultured in RPMI-1640 medium supplemented with 10% fetal bovine serum and Penicillin/Streptomycin (100 U/mL), transferred to a 6-well plate, and after 24 hours, the BRD4 degraders were diluted in the culture medium and the cells were treated with 10 μM each. After treatment, the cells were incubated in a C02 incubator for 24 hours. Through protein immunoblotting (Western Blot), the degrading capacity of each compound against BRD4 proteins in cells was confirmed. After cell culture was completed according to the experimental conditions, the cells were collected and centrifuged at 1,800 rpm for 3 minutes. The cells in the precipitate were lysed with RIPA (25 mM Tris-HCl pH 7.6, 150 mM NaCl, 1% NP-40, 1% sodium deoxycholate, 0.1% SDS, 1× Protease Inhibitor Cocktail), 5× sample buffer was added, and then heated at 100° C. for 15 minutes. The prepared sample was electrophoresed with sodium dodecyl sulfate poly acrylamide gel electrophoresis (SDS-PAGE), and then the proteins in the gel were transferred to a PVDF membrane using Trans-Blot Turbo. The membrane was treated with a 5% bovine serum albumin (BSA) solution and blocked at room temperature for 2 hours, and then BRD4 and R-actin antibodies were diluted in the 5% BSA solution to react with the membrane at 4° C. overnight. After washed with PBST (0.5% Tween20) 5 times, horse radish peroxidase (HRP)-conjugated secondary antibodies were diluted in PBST to react at room temperature for 2 hours, and then washed again with a PBST solution 5 times. After enzyme-substrate reaction was carried out using a HRP substrate, a signal was measured with chemi-doc equipment, and the densitometry of a band corresponding to the BRD4 protein detected in the Preparation Example Compounds was quantitatively analyzed. The case when the degrading capacity of each BRD4 degrader was reduced by less than 40% is indicated as +, the case when the degrading capacity was reduced by 40% to 70% (exclusive of 70) is indicated as ++, the case when the degrading capacity was reduced by 70% or more is indicated as +++ in Tables 16 to 19 below. As shown in the following Tables, it was confirmed that the compounds of Preparation Examples I′ to IV′ according to the present invention have excellent degrading capacity.

| Compound | BRD4 degrading capacity (%) |
| --- | --- |
| Cc1sc2c(c1C)C(c1ccc(Cl)cc1)=N[C@@H](CC(=O)N1CCN(c3ccc(C#CCN)cc3)CC1)c1nnc(C)n1-2.Cl [4-226′, (S)-1-(4-(4-(3-aminoprop-1-yn-1-yl)phenyl)piperazin-1-yl)-2-(4-(4-chlorophenyl)-2,3,9-trimethyl-6H-thieno[3,2-f][1,2,4]triazolo[4,3-a][1,4]diazepin-6-yl)ethan-1-one hydrochloride] | +++ (the degrading capacity was reduced by 70% or more) |
| Cc1sc2c(c1C)C(c1ccc(Cl)cc1)=N[C@@H](CC(=O)N1CCN(C(=O)c3ccc(C#CCN)o3)CC1)c1nnc(C)n1-2.Cl [4-227′, (S)-1-(4-(5-(3-aminoprop-1-yn-1-yl)furan-2-carbonyl)piperazin-1-yl)-2-(4-(4-chlorophenyl)-2,3,9-trimethyl-6H-thieno[3,2-f][1,2,4]triazolo[4,3-a][1,4]diazepin-6-yl)ethan-1-one hydrochloride] | ++ (the degrading capacity was reduced by 40% to 70% (exclusive of 70)) |
| COC(=O)c1ccc(NC(=O)CCCNC(=O)C[C@@H]2N=C(c3ccc(Cl)cc3)c3c(sc(C)c3C)-n3c(C)nnc32)cc1C#CCN.Cl [4-228′] | +++ (the degrading capacity was reduced by 70% or more) |
| Cc1sc2c(c1C)C(c1ccc(Cl)cc1)=N[C@@H](CC(=O)NCCCCCCCCNC(=O)c1ccc(C#CCN)o1)c1nnc(C)n1-2.Cl [4-235′] | ++ (the degrading capacity was reduced by 40% to 70% (exclusive of 70)) |
| CCOC(=O)c1ccc(NC(=O)CCCNC(=O)C[C@@H]2N=C(c3ccc(Cl)cc3)c3c(sc(C)c3C)-n3c(C)nnc32)cc1C#CCN.Cl [5-1′, ethyl (S)-2-(3-aminoprop-1-yn-1-yl)-4-(4-(2-(4-(4-chlorophenyl)-2,3,9-trimethyl-6H-thieno[3,2-f][1,2,4]triazolo[4,3-a][1,4]diazepin-6-yl)acetamido)butanamido)benzoate hydrochloride] | +++ (the degrading capacity was reduced by 70% or more) |
| Cc1sc2c(c1C)C(c1ccc(Cl)cc1)=N[C@@H](CC(=O)NCCCC(=O)Nc1ccc(C(=O)OC(C)C)c(C#CCN)c1)c1nnc(C)n1-2.Cl [5-2′, isopropyl (S)-2-(3-aminoprop-1-yn-1-yl)-4-(4-(2-(4-(4-chlorophenyl)-2,3,9-trimethyl-6H-thieno[3,2-f][1,2,4]triazolo[4,3-a][1,4]diazepin-6-yl)acetamido)butanamido)benzoate hydrochloride] | ++ (the degrading capacity was reduced by 40% to 70% (exclusive of 70)) |
| COC(=O)c1ccc(NC(=O)CCNC(=O)C[C@@H]2N=C(c3ccc(Cl)cc3)c3c(sc(C)c3C)-n3c(C)nnc32)cc1C#CCN.Cl [5-4′, methyl (S)-2-(3-aminoprop-1-yn-1-yl)-4-(3-(2-(4-(4-chlorophenyl)-2,3,9-trimethyl-6H-thieno[3,2-f][1,2,4]triazolo[4,3-a][1,4]diazepin-6-yl)acetamido)propanamido)benzoate hydrochloride] | ++ (the degrading capacity was reduced by 40% to 70% (exclusive of 70)) |
| COC(=O)c1ccc(NC(=O)CCCCNC(=O)C[C@@H]2N=C(c3ccc(Cl)cc3)c3c(sc(C)c3C)-n3c(C)nnc32)cc1C#CCN.Cl [5-5′, methyl (S)-2-(3-aminoprop-1-yn-1-yl)-4-(5-(2-(4-(4-chlorophenyl)-2,3,9-trimethyl-6H-thieno[3,2-f][1,2,4]triazolo[4,3-a][1,4]diazepin-6-yl)acetamido)pentanamido)benzoate hydrochloride] | ++ (the degrading capacity was reduced by 40% to 70% (exclusive of 70)) |
| COC(=O)c1ccc(NC(=O)CCCCCNC(=O)C[C@@H]2N=C(c3ccc(Cl)cc3)c3c(sc(C)c3C)-n3c(C)nnc32)cc1C#CCN.Cl [5-6′, methyl (S)-2-(3-aminoprop-1-yn-1-yl)-4-(6-(2-(4-(4-chlorophenyl)-2,3,9-trimethyl-6H-thieno[3,2-f][1,2,4]triazolo[4,3-a][1,4]diazepin-6-yl)acetamido)hexanamido)benzoate hydrochloride] | ++ (the degrading capacity was reduced by 40% to 70% (exclusive of 70)) |
